Measured values published in patent US5409933A, “Quinoline derivatives and processes for preparing the same” (priority 1993, dated 1995).
Counter-ions that a name gives are not always drawn. Like-named read-outs stand apart in the source and are kept apart here.

Columns and labels:
[1] = system: Escherichia coli TEM; experiment: In Vitro Anti-Bacterial Activity Test (MIC, agar dilution); format: cell-based; conditions: Escherichia coli, 18 h, Muller-Hinton agar, 37° C.
Outline: (§1)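 Muller-Hinton agar dilution method. Inoculum 10^7 C.F.U./ml; 37° C., 18 h. Endpoint: minimum inhibitory concentration by growth inspection. Ciprofloxacin control.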

[2] = system: Pseudomonas aeruginosa 1771; experiment: as above; format: cell-based; conditions: Pseudomonas aeruginosa 1771; Muller-Hinton agar, 37° C., 18 hours; read-out: MIC
Outline: as §1

[3] = system: Staphylococcus aureus SG511; experiment: as above; format: cell-based; conditions: Staphylococcus aureus SG511; Muller-Hinton agar, 37° C., 18 hours; read-out: MIC
Outline: as §1

[4] = system: Escherichia coli 1507E; experiment: as above; format: cell-based; conditions: Muller-Hinton agar, 37° C., 18 hours, read-out: MIC
Outline: as §1

[5] = system: Enterobacter cloacae P99; experiment: as above; format: cell-based; conditions: Enterobacter cloacae, P99, 18 h
Outline: as §1

[6] = system: Escherichia coli DC2; experiment: as above; format: cell-based; conditions: Escherichia coli, DC2, 18 h
Outline: as §1

[7] = system: Escherichia coli DC0; experiment: as above; format: cell-based; conditions: Muller-Hinton agar, 37° C., 18 hours, read-out: MIC
Outline: as §1

[8] = system: Staphylococcus aureus 285; experiment: as above; format: cell-based; conditions: Staphylococcus aureus, 285, 18 h, Staphylococcus aureus 285; Muller-Hinton agar, 37° C., 18 hours; read-out: MIC
Outline: as §1

[9] = system: Pseudomonas aeruginosa 1592E; experiment: as above; format: cell-based; conditions: Muller-Hinton agar, 37° C., 18 hours, read-out: MIC
Outline: as §1

[10] = system: Enterobacter cloacae 1321E; experiment: as above; format: cell-based; conditions: Enterobacter cloacae 1321E; Muller-Hinton agar, 37° C., 18 hours; read-out: MIC
Outline: as §1

[11] = system: Klebsiella oxytoca 1082E; experiment: as above; format: cell-based; conditions: Klebsiella oxytoca 1082E; Muller-Hinton agar, 37° C., 18 hours; read-out: MIC
Outline: as §1

[12] = system: Escherichia coli 078; experiment: as above; format: cell-based; conditions: Escherichia coli 078; Muller-Hinton agar, 37° C., 18 hours; read-out: MIC
Outline: as §1

[13] = system: Streptococcus pyogenes 308A; experiment: as above; format: cell-based; conditions: Muller-Hinton agar, 37° C., 18 hours, read-out: MIC
Outline: as §1

[14] = system: Staphylococcus aureus 503; experiment: as above; format: cell-based; conditions: Staphylococcus aureus 503; Muller-Hinton agar, 37° C., 18 hours; read-out: MIC
Outline: as §1

[15] = system: Streptococcus faecium MD8b; experiment: as above; format: cell-based; conditions: Enterococcus faecium, Muller-Hinton agar, 37° C., 18 hours, read-out: MIC
Outline: as §1

[16] = system: Streptococcus pyogenes 77A; experiment: as above; format: cell-based; conditions: Streptococcus pyogenes 77A; Muller-Hinton agar, 37° C., 18 hours; read-out: MIC
Outline: as §1

[17] = system: Pseudomonas aeruginosa 1771M; experiment: as above; format: cell-based; conditions: Pseudomonas aeruginosa, 1771M, 18 h, Muller-Hinton agar, 37° C.
Outline: as §1

[18] = system: Pseudomonas aeruginosa 9027; experiment: as above; format: cell-based; conditions: Muller-Hinton agar, 37° C., 18 hours, read-out: MIC
Outline: as §1

[19] = system: Klebsiella aerogenes 1522E; experiment: as above; format: cell-based; conditions: Klebsiella aerogenes, 1522E, 18 h, Klebsiella aerogenes 1522E; Muller-Hinton agar, 37° C., 18 hours; read-out: MIC
Outline: as §1

[20] = system: Salmonella typhimurium; experiment: as above; format: cell-based; conditions: Salmonella enterica; Salmonella typhimurium; Muller-Hinton agar, 37° C., 18 hours; read-out: MIC
Outline: as §1

[21] = Acute Toxicity Test; conditions: mouse, in vivo, ICR mice, 14th day
Description: Test compounds were administered to ICR mice weighing 20 to 25 g. On 14th day, LD50 was calculated from the number of survived mice by the probit analysis.

[22] = system: S. aureus 17740; experiment: Treatment Effect on the Systemic Infection; format: in vivo, NMRI mice; conditions: Staphylococcus aureus, in Mus musculus, 240 h, S. aureus 17740, immediately and 4 hours after infection, survival on 10th day
Description: (§2) 10 fold of the pathogens which lead to 100% lethality were injected intraperitoneally to male and female NMRI mice weighing 18 to 20 g. Immediately and 4 hours after injection, the dose of test compounds, which was determined by two-fold serial dilution method, was administered orally or subcutaneously to the mice, and on the 10th day, the effect was evaluated in terms of ED50 calculated from the number of survived mice by the probit analysis.

[23] = system: P. mirabilis; experiment: Treatment Effect on the Systemic Infection; format: in vivo, NMRI mice; conditions: Proteus mirabilis, in Mus musculus, 240 h, P. mirabilis, immediately and 4 hours after infection, survival on 10th day
Description: as §2

[24] = oral, read-out: ED50 Oral Administration
[25] = sc, subcutaneous, read-out: ED50 Subcutaneous Injection

N[C@H]1CCN(c2c(F)cc3c(=O)c(C(=O)C[N+](=O)[O-])cn(C4CC4)c3c2Cl)C1 [Example 13, 1-cyclopropyl-6-fluoro-8-chloro-7-(3-3S-aminopyrrolidin-1-yl)-3-(2-nitroacetyl)-1,4-dihydro-4-oxoquinoline hydrochloride]
MIC [1]: < 0.002 µg/mL
MIC [2]: 0.195 µg/mL
MIC [3]: 0.025 µg/mL
MIC [4]: 0.004 µg/mL
MIC [5]: 0.004 µg/mL
MIC [6]: 0.013 µg/mL
MIC [7]: 0.049 µg/mL
MIC [8]: 0.025 µg/mL
MIC [9]: 0.195 µg/mL
MIC [10]: < 0.002 µg/mL
MIC [11]: < 0.002 µg/mL
MIC [12]: < 0.002 µg/mL
MIC [13]: 0.195 µg/mL
MIC [14]: 0.049 µg/mL
MIC [15]: 0.195 µg/mL
MIC [16]: 0.195 µg/mL
MIC [17]: 0.049 µg/mL
MIC [18]: 0.195 µg/mL
MIC [19]: 0.013 µg/mL
MIC [20]: < 0.002 µg/mL
LD50 at 336 h ([21]; ip, read-out: Acute Toxicity LD50, Peritomeo Injection): 580 mg/kg
LD50 at 336 h ([21]; oral, read-out: Acute Toxicity LD50, Oral Administration): 3800 mg/kg
ED50 [22, 24]: 128 mg/kg
ED50 [22, 25]: 16.8 mg/kg
ED50 [23, 24]: 0.21 mg/kg
ED50 [23, 25]: 0.08 mg/kg
